Where two headings read alike, the source gives them in different places. One block for each molecule: values may come before it.
Legend:
hGPR17 [1] = target: T1, hGPR17 (Homo sapiens, UniProt Q13304); assay: [35S]GTPγS binding to membranes of 1321N1 cells expressing human GPR17; format: biochemical; parameters: expressed in transfected cells; host or cells: 1321N1 (A1, A5), COS-7 (A3, A6), HEK-293 (A4); pcDNA3.1; conditions: for effect on [35S]GTPγS binding (agonist response): tested at 10 and 50 μM, 1321N1 cells expressing hGPR17; for EC50: agonist, 1321N1 cells expressing human GPR17
Method: (§1) [^35S]GTPγS Binding Assay. 1321N1 cells, COS-7 and HEK-293 cells (control and transfected cells) were homogenized in 5 mM TRIS-HCl, 2 mM EDTA, pH 7.4 and centrifuged at 48000 g for 15 min at 4° C. The resulting pellets (plasma membranes) were washed in 50 mM TRIS-HCl, 10 mM MgCl2, pH 7.4 and stored at −80° C. until used. Measurement of nucleotide-stimulated [^35S]GTPγS binding to membranes of cells expressing the human or rat GPR17 receptor was performed as previously described^9-11.
(§2) To identify the endogenous ligand of GPR17, the cDNAs from human and rat GPR17 were cloned into the mammalian expression vector pcDNA3.1 and transfected in 1321N1, COS-7 and HEK-293 cells for functional characterization. GPR17 activation was assessed by testing the ability of exogenously-added ligands to increase [^35S]GTPγS binding to purified membranes obtained from transfected cells^9-11. […] The specificity of GPR17 responses were also challenged by assessing the ability of some purinergic and leukotriene receptor antagonists to counteract the increase of [^35S]GTPγS binding evoked by nucleotides and cys-LTs in 1321N1 cells expressing either the human or rat receptor. […] Because both P2Y^2,11,12 and CysLT receptors^3,13 may couple to G proteins of the Gi subfamily, to evaluate the involvement of this class of G-proteins, we preincubated 1321N1 cells expressing hGPR17 with pertussis toxin (PTX) which inactivates Gi proteins, prior to membrane preparation and [^35S]GTPγS binding.
(§3) Table 1. Potency of various ligands on [^35S]GTPγS binding to membranes obtaind from 1321N1 cells-transfected with human or rat GPR17. […] All data represent the mean of triplicate determinations from 4-9 independent experiments.

rat GPR17 = target: T2, rat GPR17 (Rattus norvegicus, UniProt Q09QM4); assay: [35S]GTPγS binding to membranes of 1321N1 cells expressing rat GPR17; format: biochemical; conditions: for IC50: rat GPR17; for EC50: agonist, 1321N1 cells expressing rat GPR17
T2 construct: expressed in transfected cells; host or cells: 1321N1; pcDNA3.1
Method: as §1, §2, §3

hGPR17 [2] = target: T1, hGPR17; assay: [35S]GTPγS binding, COS-7 cells expressing hGPR17; format: biochemical; parameters: expressed in transfected cells; host or cells: COS-7 (A3, A6); pcDNA3.1; conditions: COS-7 cells transfected with hGPR17
Method: as §1
To identify the endogenous ligand of GPR17, the cDNAs from human and rat GPR17 were cloned into the mammalian expression vector pcDNA3.1 and transfected in 1321N1, COS-7 and HEK-293 cells for functional characterization. GPR17 activation was assessed by testing the ability of exogenously-added ligands to increase [^35S]GTPγS binding to purified membranes obtained from transfected cells^9-11. […] The specificity of GPR17 responses were also challenged by assessing the ability of some purinergic and leukotriene receptor antagonists to counteract the increase of [^35S]GTPγS binding evoked by nucleotides and cys-LTs in 1321N1 cells expressing either the human or rat receptor. […]

hGPR17 [3] = target: T1, hGPR17; assay: Single cell calcium imaging in 1321N1 cells expressing hGPR17; format: cell-based; parameters: expressed in transfected cells; host or cells: 1321N1 (A1, A5), COS-7 (A3, A6), HEK-293 (A4); pcDNA3.1
Excerpt: (§4) Polychrome IV (TILL Photonics, Germany) was used as light source. Fura-2 and EGFP fluorescence images were collected with a PCO Super […] (Axon Instruments, Forest City, Calif.) and analyzed with the Axon Imaging Workbench 2.2 software (Axon Instruments).

hGPR17 [4] = target: T1, hGPR17; assay: Single cell calcium imaging in COS-7 cells expressing hGPR17; format: cell-based; parameters: expressed in transfected cells; host or cells: COS-7 (A3, A6); pcDNA3.1
Excerpt: as §4, with “(e-h) The same agonists induced no responses in cells transfected with the empty plasmid. […] Polychrome” for “Polychrome”

[5] = tested on: ischemic brain damage (MCAo); assay: Permanent middle cerebral artery occlusion (MCAo), brain infarct size by MRI; format: in vivo, rat; conditions: 400 ng/animal i.c.v. 48 and 24 h before and 10 min after MCAo
Method: Quantitative analysis of infarct size volume at 24 and 48 h after MCAo from rats receiving vehicle (C1, n=5) or Mtk (2 mg/kg intravenously, i.v., 10 min after MCAO; n=6); vehicle (C2, n=5) or AR-C (4.5 μg/animal intracerebroventricularly, i.c.v., 10 min after MCAo, n=5), vehicle (C3, n=5) or either oligo616 or scrambled-oligo (400 ng/animal, i.c.v., 48, 24 before and 10 min after MCAo, n=5). Data are expressed as percentage variation of infarct volume at 24 and 48 hours after MCAo compared to 2 h considered as 100% (§ p<0.05, # p<0.01 vs volume at 2 hr; *p <0.05, **p<0.01 vs corresponding control evaluated at the same time point). Induction of focal brain ischemia in the rat. Male Sprague-Dawley rats (Charles River) underwent permanent middle cerebral artery occlusion (MCAo) as previously described^28,29. […] AR-C was utilized here to simply test the involvement of GPR17 in brain ischemia, and, being a very polar molecule which is likely to very poorly permeate the blood brain barrier, it was administered i.c.v. Oligo-616 and oligo-scramble (400 ng in 5 μl of physiological solution) were administered i.c.v three times to each rat 48, 24 h before and 10 minutes after MCAo. Control groups received corresponding vehicle i.c.v. Magnetic Resonance Imaging analysis. […]

rGPR17 mRNA = assay: Antisense down-regulation of rGPR17 mRNA in HEK-293 cells (RT-PCR); format: cell-based, rat; conditions: 0.3 μM, added 16 and 40 h after transfection
Method: FIG. 4.1 Target sequences of synthesized anti-sense oligonucleotides on rGPR17 mRNA. (a) The various anti-sense sequences were named based on the rat coding sequence (GenBank accession No.: AC112062); black arrows indicate beginning and ending of the coding sequences. All oligonucleotides, including the “scrambled” sequence, were designed as described in Methods. All these sequences were tested in vitro on HEK-293 cells expressing rGPR17 in order to select the most appropriate oligonucleotides to be utilized for the in vivo studies. Two typical experiments are shown in (b), one aimed at assaying oligo616, oligo241 and oligo99, and the other one aimed at assaying oligoSTART and oligoEND, all in comparison with scrambled oligo sequences run in parallel. On day 2 after plating, cells were transfected with pcDNA3.1 containing the construct encoding for rGPR17 together with the neomycin resistance gene, here utilized as a reported gene. […] Twenty-four h after the last Fugene addition, RNA was extracted from cells as described in Methods, and the transcripts for both rGPR17 and the neomycin resistance gene determined as specific RT-PCR amplification products of 1079 and 357 bp, respectively, as indicated. […]

T1 sequence (Q13304 29-367): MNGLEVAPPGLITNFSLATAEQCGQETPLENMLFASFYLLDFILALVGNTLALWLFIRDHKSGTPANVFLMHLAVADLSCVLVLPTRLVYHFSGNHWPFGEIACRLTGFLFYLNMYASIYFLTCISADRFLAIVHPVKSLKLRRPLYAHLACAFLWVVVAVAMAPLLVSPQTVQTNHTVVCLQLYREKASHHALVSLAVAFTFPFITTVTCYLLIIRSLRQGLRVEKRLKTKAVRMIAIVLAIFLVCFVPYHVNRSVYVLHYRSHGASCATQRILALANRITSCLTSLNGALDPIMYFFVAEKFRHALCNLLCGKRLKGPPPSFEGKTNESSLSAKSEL
T2 sequence (Q09QM4 whole entry): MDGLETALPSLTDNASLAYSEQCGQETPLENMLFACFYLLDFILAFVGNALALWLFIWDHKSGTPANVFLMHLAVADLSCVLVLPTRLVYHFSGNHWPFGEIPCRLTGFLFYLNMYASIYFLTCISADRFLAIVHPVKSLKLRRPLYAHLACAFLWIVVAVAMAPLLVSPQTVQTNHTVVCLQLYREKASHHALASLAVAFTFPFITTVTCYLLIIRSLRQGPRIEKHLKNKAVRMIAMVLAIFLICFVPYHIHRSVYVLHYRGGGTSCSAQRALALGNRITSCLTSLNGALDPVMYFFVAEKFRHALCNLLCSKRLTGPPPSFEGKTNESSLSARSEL

Molecule: CSc1nc(N)c2ncn([C@@H]3O[C@H](COP(=O)(O)OP(=O)(O)O)[C@@H](O)[C@H]3O)c2n1 [2-methyl-thio-ADP]
effect on [35S]GTPγS binding (agonist response) (hGPR17 [1]): No other nucleotides or nucleosides (i.e., ATP, ADP, 2-methyl-thio-ADP, UTP, α,βmethylenATP and guanosine, all tested at 10 and 50 μM concentrations) had any effect

Molecule: Nc1ncnc2c1ncn2[C@@H]1O[C@H](COP(=O)(O)OP(=O)(O)O)[C@@H](O)[C@H]1O [ADP]
effect on [35S]GTPγS binding (agonist response) (hGPR17 [1]): No other nucleotides or nucleosides (i.e., ATP, ADP, 2-methyl-thio-ADP, UTP, α,βmethylenATP and guanosine, all tested at 10 and 50 μM concentrations) had any effect

IC50 (rat GPR17; antagonist of binding stimulated by 50 μM UDP-glucose): 0.022 ± 0.0015 nM
Molecule: CSCCNc1nc(SCCC(F)(F)F)nc2c1ncn2C1OC(COP(=O)(O)OP(=O)(O)C(Cl)(Cl)P(=O)(O)O)C(O)C1O (stereo not drawn) [AR-C69931MX, N6-methylthio-ethyl-2-trifluoromethyl-ethylthio-adenosin-5′beta-methylene, γ-dichloromethylene trisphosphate]

Molecule: Nc1ncnc2c1ncn2[C@@H]1O[C@H](COP(=O)(O)OP(=O)(O)OP(=O)(O)O)[C@@H](O)[C@H]1O [ATP]
effect on [35S]GTPγS binding (agonist response) (hGPR17 [1]): No other nucleotides or nucleosides (i.e., ATP, ADP, 2-methyl-thio-ADP, UTP, α,βmethylenATP and guanosine, all tested at 10 and 50 μM concentrations) had any effect

response in [35S]GTPγS binding (hGPR17 [2]): induced responses
EC50 (rat GPR17): 65 ± 4.2 nM
EC50 (hGPR17 [1]): 0.33 ± 0.011 nM
Molecule: CCCCC/C=C\C\C=C/C=C/C=C/[C@@H](SC[C@H](NC(=O)CC[C@H](N)C(=O)O)C(=O)NCC(=O)O)[C@@H](O)CCCC(=O)O [LTC, LTC4]

cells showing rise of [Ca2+]i (hGPR17 [3]): approximately 30%
response in [35S]GTPγS binding (hGPR17 [2]): induced responses
EC50 (rat GPR17): 5.9 ± 0.4 nM
EC50 (hGPR17 [1]): 7.2 ± 0.3 nM
cells showing [Ca2+]i transient (hGPR17 [4]): approximately 50%
mean calcium response ΔF340/380 (hGPR17 [4]; n=22): 0.18±0.03
Molecule: CCCCC/C=C\C\C=C/C=C/C=C/[C@@H](SC[C@H](N)C(=O)NCC(=O)O)[C@@H](O)CCCC(=O)O [LTD, LTD4]

IC50 (hGPR17 [1]): 60 ± 4.3 nM
Molecule: CC(C)(O)c1ccccc1CC[C@@H](SCC1(CC(=O)O)CC1)c1cccc(/C=C/c2ccc3ccc(Cl)cc3n2)c1 [Montelukast]

IC50 (rat GPR17; antagonist of activation induced by 100 nM LTD4): 31 ± 2.4 nM
IC50 (hGPR17 [1]; antagonist of activation induced by 100 nM LTD4, human GPR17): 10.5 ± 1.2 nM
Molecule: O=C(Nc1cccc2c(=O)cc(-c3nnn[nH]3)oc12)c1ccc(OCCCCc2ccccc2)cc1 [Pranlukast]

Molecule: O=c1ccn([C@@H]2O[C@H](COP(=O)(O)OP(=O)(O)OP(=O)(O)O)[C@@H](O)[C@H]2O)c(=O)[nH]1 [UTP]
effect on [35S]GTPγS binding (agonist response) (hGPR17 [1]): No other nucleotides or nucleosides (i.e., ATP, ADP, 2-methyl-thio-ADP, UTP, α,βmethylenATP and guanosine, all tested at 10 and 50 μM concentrations) had any effect

Molecule: Nc1nc2c(ncn2[C@@H]2O[C@H](CO)[C@@H](O)[C@H]2O)c(=O)[nH]1 [guanosine]
effect on [35S]GTPγS binding (agonist response) (hGPR17 [1]): No other nucleotides or nucleosides (i.e., ATP, ADP, 2-methyl-thio-ADP, UTP, α,βmethylenATP and guanosine, all tested at 10 and 50 μM concentrations) had any effect

Molecule: Nc1ncnc2c1ncn2[C@@H]1O[C@H](COP(=O)(O)CP(=O)(O)OP(=O)(O)O)[C@@H](O)[C@H]1O [α,βmethylenATP]
effect on [35S]GTPγS binding (agonist response) (hGPR17 [1]): No other nucleotides or nucleosides (i.e., ATP, ADP, 2-methyl-thio-ADP, UTP, α,βmethylenATP and guanosine, all tested at 10 and 50 μM concentrations) had any effect

IC50 (hGPR17 [1]; antagonist of binding stimulated by 50 μM UDP-glucose, human GPR17): 508 ± 29 nM
Molecule: N6-methyl-adenosin-3′,5′-bis-phosphate [MRS 2179]

Molecule: PTX
inhibition of agonist-stimulated [35S]GTPγS binding (hGPR17 [1]; cells exposed to 100 ng/ml PTX for 18 h before membrane preparation, stimulated by UDP, UDP-galactose, UDP-glucose or LTD4): strongly inhibited

Molecule: oligo241: antisense oligonucleotide designed on the sequence of rGPR17 mRNA, SEQ ID NO: 2, unmodified (antisense GGGATCACAAGTCAGGCAC; unmodified DNA; listed as Rattus norvegicus)
evolution of brain infarct size (MRI) [5]: smaller protective effect

Molecule: oligo616: antisense oligonucleotide designed on the sequence of rGPR17 mRNA, SEQ ID NO: 1, unmodified (antisense AACTGTACCGGGAGAAGGCC; unmodified DNA; listed as Rattus norvegicus)
attenuation of rGPR17 mRNA / in vitro expression of rGPR17 (rGPR17 mRNA): able to attenuate rGPR17 mRNA
evolution of brain infarct size (MRI) [5]: markedly and significantly attenuated infarct size evolution

Source: patent US8158593B2, “GPR17 modulators, method of screening and uses thereof” (Universita' degli Studi di Milano, priority 2004, dated 2012)
